{
  "source": "patent US11008325B2",
  "about": "“Inhibitors of cancer invasion, attachment, and/or metastasis” (VIRGINIA COMMONWEALTH UNIVERSITY, priority 2016, dated 2021)",
  "key": {"[1]": {"biological_target": "T1, MDA-9 PDZ12 tandem domain (PDZ1) (Homo sapiens, UniProt O00560)", "T1 construct": "the MDA-9/Syntenin construct used for the screen contains both PDZ domains; made in house", "T1 sequence (O00560 110-274)": "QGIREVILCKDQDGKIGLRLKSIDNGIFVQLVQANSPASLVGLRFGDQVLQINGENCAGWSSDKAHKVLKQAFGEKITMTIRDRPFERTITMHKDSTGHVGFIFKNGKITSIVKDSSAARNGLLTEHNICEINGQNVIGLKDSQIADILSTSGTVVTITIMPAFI", "assay": "NMR [15N,1H] HSQC chemical shift change and titration binding", "description": "FIGS. 4A-4E. FIG. 4A. […] FIG. 4B. Superposition of 2D [^15N, ^1H]-HSQC spectra of 50 μM MDA-9 PDZ12 tandem domain in the absence and presence of 350 μM 113B7. FIG. 4C. Binding curve and representative spectra for the titration of 113B7 against MDA-9 PDZ12 tandem domain. Top: Zoom of box region in FIG. 4B after titrating 113B7 into Mda9 PDZ, tandem domain. […] Bottom: Titration curve of 113B7 for residue A147. […] FIG. 4D. […] FIG. 4E. Docked structure of 113B7 in complex with MDA-9 PDZ tandem domain (PDB: 1W9E). The pose was obtained with GOLD. Two PDZ domains of MDA-9 are labeled.\nNMR based screening of an house assembled fragment library of about 5,000 compounds using [^15N,^1H] […] The proposed docked structure of PDZ1i in the PDZ1 domain and interdomain of MDA-9/Syntenin is shown in FIGS. 4A-4E and FIG. 5, while the chemical structure of PDZ1i is also shown in FIGS. 4A-4E and FIG. 5.\nIn all binding assays, the MDA-9/Syntenin construct used for the screen contains both PDZ domains. Constructs uniformly labeled with ^15N and ^13C or ^13C-Met selectively labeled are used for binding, mapping and structural studies. These same proteins are used for ITC binding studies."}, "T98G cells": {"system": "T98G cells", "assay": "trans-well Matrigel invasion assay", "format": "cell-based, human", "details": "PDZ1i versus DMSO", "description": "(§1) FIGS. 7A-7B. FIG. 7A. Im-PHFA, primary immortal human fetal astrocyte cells were infected with an MDA-9/Syntenin expression plasmid carrying adenovirus. 48 hrs post-infection both the control and MDA-9/Syntenin overexpressing cells were treated with DMSO or PDZ1i followed by seeding in a trans-well Matrigel invasion assay and stained after 24 hrs. FIG. 7B. T98G and U87 were treated with DMSO or PDZ1i and seeding in a trans-well Matrigel invasion assay and stained after 24 hrs. Invasion was quantified from 4 random fields. Data represents fold changes and average±S.D.\n(§2) Invasion was measured using 24-well BioCoat cell culture inserts (BD Biosciences, Bedford, Mass.) with an 8-μm-porosity polyethylene terephthalate membrane coated with Matrigel Basement Membrane Matrix (100 μg/cm^2). Briefly, the Matrigel was allowed to rehydrate for 2 h at room temperature by adding warm, serum-free DMEM. The wells of the lower chamber were filled with medium containing 10% fetal bovine serum. […] Cells remaining on the upper surface of the filters were removed by wiping with a cotton swab, and invasion was determined by counting the cells that migrated to the lower side of the filter using at least 5 fields per insert at 100× magnification. […] Data from triplicate experiments were expressed as mean±95% confidence interval (CI)."}, "[2]": {"system": "Im-PHFA cells overexpressing MDA-9/Syntenin", "assay": "trans-well Matrigel invasion assay", "format": "cell-based, human", "details": "after MDA-9/Syntenin overexpression", "description": "as §1, §2"}},
  "note": "“Also recorded” adds a separate entry of the source. Read-outs that look alike come from different tables or passages of the source.",
  "data": [
    {"compound": "Cc1cc(NC(=O)c2nc3[nH]c4c(c(=O)n3n2)CCC4)c(C)cc1NC(=O)CCc1nnc(-c2ccccc2)o1", "note": "[113B7, N-(2,5-dimethyl-4-(3-(5-phenyl-1,3,4-oxadiazol-2-yl)propanamido)phenyl)-8-oxo-5,6,7,8-tetrahydro-4H-cyclopenta[d][1,2,4]triazolo[1,5-a]pyrimidine-2-carboxamide]", "values": [
      {"measurement": "dissociation constant / affinity in words", "setting": "[1]; NMR titration (and ITC)", "value": "low micromolar range; also recorded: micromolar affinity"},
      {"measurement": "Kd", "setting": "[1]; NMR titration following backbone amide of residue 147, read-out: Kd values", "value": "21.4 ± 8.62", "unit": "µM"},
      {"measurement": "Kd", "setting": "[1]; NMR titration, read-out: upper limit for the dissociation constant of the complex, Kd", "value": "< 10", "unit": "µM"},
      {"measurement": "Binding affinity ranking", "setting": "[1]; chemical shift change (DPPM) of backbone amide of residue 147, 50 μM PDZ12, compound at 1:1 molar ratio", "value": "4 (4 for DPPM 0.06-0.08)"},
      {"measurement": "Kd", "setting": "[1]; estimated by NMR titration in 2D HSQC experiments (Table 4), read-out: Kd", "value": "~10", "unit": "µM"},
      {"measurement": "invasion", "setting": "T98G cells", "value": "effectively inhibited invasion"},
      {"measurement": "MDA-9/Syntenin-induced invasion", "setting": "[2]", "value": "effective in inhibiting MDA-9/Syntenin-induced invasion"}
    ]}
  ]
}
